One block for each sequence: values may come before it.
Legend:
Experiment in all cases: pTyr-Var library bacterial peptide display kinase screen (enrichment scores)
c-Abl kinase domain = target: T1, c-Abl kinase domain (Mus musculus, UniProt P00520); assay type: biochemical
T1 sequence (P00520 242-493 limits assumed): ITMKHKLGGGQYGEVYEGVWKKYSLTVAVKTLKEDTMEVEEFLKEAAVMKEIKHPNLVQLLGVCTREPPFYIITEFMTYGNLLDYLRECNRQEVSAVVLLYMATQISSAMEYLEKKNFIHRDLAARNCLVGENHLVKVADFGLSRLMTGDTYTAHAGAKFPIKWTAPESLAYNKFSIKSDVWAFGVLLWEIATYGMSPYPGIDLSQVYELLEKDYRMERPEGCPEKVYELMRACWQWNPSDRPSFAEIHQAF

c-Src kinase domain = c-Src kinase domain (Homo sapiens, UniProt P12931); assay type: biochemical; settings: sheet "Src"
EPHB1 kinase domain = assay type: biochemical, human; settings: sheet EPHB1; effect of the variant peptide relative to its reference peptide in the pTyr-Var library screen (enrichment scores)
EPHB2 kinase domain = assay type: biochemical, human; settings: sheet EPHB2; effect of variant peptide relative to its reference peptide in the pTyr-Var library screen (enrichment scores)
Fer kinase domain = assay type: biochemical, mouse; settings: sheet "Fer"
[1] = fig5-data2, sheet "Abl", Screen for the variant/reference peptide pair, pTyr-Var library
[2] = variant peptide versus its reference peptide in the pTyr-Var library screen
[3] = effect of the variant peptide relative to its reference peptide in the pTyr-Var library screen
[4] = value of the variant peptide against its reference peptide in the pTyr-Var library screen with Fer
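Note: log2 fold change in enrichment of variant over reference.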

Screen (c-Abl kinase domain; [1]): 0.1245
Sequence: ERIELYELDKK [PMM2_Y145_F144L]

Sequence: NFFDLYGGEKF [PTPN11_Y66_D61N_YF]
Screen (c-Src kinase domain; [2]): -0.03521

Screen (c-Abl kinase domain; [1]): 1.57
Sequence: NNFGNYNNQSS [HNRNPA1_Y318_D314N]

Screen (EPHB1 kinase domain): 1.06 | Screen (EPHB2 kinase domain): 0.6623
Sequence: LAIELYVVVCK [RHO_Y136_R135L]

Sequence: KRNSLYSFSDH [CCDC82_Y331_Q327R]
Screen (c-Src kinase domain; [3]): -1.645 | Screen (Fer kinase domain; [4]): -2.294

Sequence: PDSVDYPKKGF [CTSK_Y121_R122P_YF]
Screen (c-Src kinase domain; [3]): 2.065 | Screen (c-Abl kinase domain; [1]): -1.054 | Screen (Fer kinase domain; [4]): 0.978

Sequence: TTGGFYSFGGG [KRT24_Y120_A115T_YF]
Screen (c-Src kinase domain; [3]): -0.1401 | Screen (Fer kinase domain; [4]): -0.6603

Screen (EPHB1 kinase domain): -0.2034
Sequence: RRNEEYCLLAS [ITK_Y198_D202A]

Screen (EPHB1 kinase domain): -0.1972
Sequence: DGQVNYEGFVQ [CALM1_Y139_E141G]

Sequence: IGEVVYQWAVM [GRIN2A_Y502_R504W]
Screen (c-Src kinase domain; [3]): -0.09777 | Screen (Fer kinase domain; [4]): 2.434

Sequence: KEAQVYQAFRL [SUCLG2_Y343_K347R]
Screen (c-Src kinase domain; [2]): 0.6304 | Screen (Fer kinase domain; variant peptide relative to its reference peptide, pTyr-Var library screen enrichment): 0.58

Screen (c-Abl kinase domain; sheet "Abl", effect of variant peptide relative to its reference peptide in pTyr-Var library screen (enrichment)): -5.31
Sequence: VKPENYRRLDV [VHL_Y175_I180V]

Sequence: HFVFFYSFLLK [PTEN_Y178_R173H_YF]
Screen (c-Src kinase domain; [2]): 0.679

Screen (c-Abl kinase domain; [1]): 0.583
Sequence: QHVPDYRQNGF [PCDHGA10_Y895_V899G_YF]

Screen (EPHB1 kinase domain): -1.226 | Screen (EPHB2 kinase domain): -0.4556
Sequence: LFEDRYLLGPS [ASS1_Y87_T91P_YF]

Sequence: FQKNSYSEELR [LMNA_Y211_I210S]
Screen (c-Src kinase domain; [3]): -2.048

Sequence: LCHELYNTIRD [PBRM1_Y54_V49L]
Screen (c-Src kinase domain; [2]): 1.3

Screen (c-Abl kinase domain; [1]): 1.479
Sequence: DCLASYLDKVR [KRT14_Y129_R125C]

Screen (c-Abl kinase domain; [1]): 0.6322
Sequence: QQLQGYVPSNF [FRK_Y99_I100V_YF]

Screen (Fer kinase domain; [4]): 4.104
Sequence: GGMTEYELVVV [KRAS_Y4_K5E]

Sequence: FDGGCYEQLFV [MC4R_Y41_S36Y_YF]
Screen (c-Src kinase domain; [3]): 0.4972 | Screen (Fer kinase domain; [4]): 0.1035

Sequence: LLTALYFISWG [KCNH2_Y780_R784W]
Screen (c-Src kinase domain; [3]): 0.3693

Screen (c-Abl kinase domain; [1]): 0.08452
Sequence: GKVADYIPQLP [GLS_Y249_A254P]

Screen (c-Abl kinase domain; [1]): 1.02
Sequence: TGNPAYRSFSN [IL4R_Y497_A492T]

Screen (c-Abl kinase domain; [1]): -0.7157
Sequence: KNEVLYDEENH [ARFGEF1_Y314_G316E]

Screen (EPHB1 kinase domain): 0.1225
Sequence: RHPEVYHHLGI [NVL_Y290_V295I]

Screen (c-Abl kinase domain; [1]): 0.3442
Sequence: VIKDKYPKAHF [APTX_Y209_R213H_YF]

Screen (EPHB1 kinase domain): 1.362
Sequence: VRFVDYVLFRS [FAM189B_Y361_S358F]

Screen (c-Abl kinase domain; [1]): 1.358
Sequence: SARVRYLMAEK [LDHB_Y173_F171V]

Screen (c-Abl kinase domain; [1]): 1.288
Sequence: WDLTDYLMKIL [ACTB_Y188_R183W]

Screen (EPHB2 kinase domain): -2.35
Sequence: TDIVAYSGWVQ [SPTBN2_Y477_R480W]

Screen (c-Abl kinase domain; [1]): -0.8606
Sequence: EPAVLYNLKER [MYH7_Y103_D107E]

Screen (c-Abl kinase domain; [1]): 0.6191
Sequence: LMQAEYWHDPI [PPT1_Y185_V181M]

Sequence: LWQTIYNLEAE [TNNT2_Y251_S249T]
Screen (c-Src kinase domain; [2]): 0.4505

Sequence: EPFEVYRIVPE [IRF8_Y110_K108E_YF]
Screen (c-Src kinase domain; [3]): 2.655

Sequence: FFFDLYGGEKF [PTPN11_Y66_D61Y_YF]
Screen (c-Src kinase domain; [2]): -1.282

Sequence: PLRAFYLIARV [HLCS_Y635_D634Y_YF]
Screen (c-Src kinase domain; [3]): 1.953

Screen (c-Abl kinase domain; [1]): 0.4141
Sequence: IWGKKYPTCNS [PTPRZ1_Y53_N48I]

Screen (c-Abl kinase domain; [1]): 0.7498
Sequence: LEIETYRRLRD [KRT12_Y429_L433R]

Screen (c-Abl kinase domain; [1]): 0.6568
Sequence: DFTSRYLSASD [PKHD1_Y828_N830S]

Sequence: IIEDPYFGNDF [ACP1_Y132_S137F_YF]
Screen (c-Src kinase domain; [3]): 0.7844

Screen (c-Abl kinase domain; [1]): 0.4221
Sequence: HHFAAYFQQGD [GPI_Y351_R347H]

Screen (c-Abl kinase domain; [1]): 1.628
Sequence: KICDWYQRQRP [KRT14_Y151_R148C]

Sequence: GRDVIYKGFED [NFU1_Y194_G190R]
Screen (c-Src kinase domain; [2]): -0.4839

Sequence: ERDTVYSSSGV [NELL2_Y350_N347D]
Screen (c-Src kinase domain; [2]): 1.43

Sequence: MSGDVYSTDFF [NTRK2_Y702_R699G_YF]
Screen (c-Src kinase domain; [2]): 0.7528

Sequence: TTPAVYARVTK [CTRB2_Y246_A250T]
Screen (c-Src kinase domain; [3]): 0.6652

Screen (c-Abl kinase domain; [1]): -1.213
Sequence: KAIMTYVFSFF [ACTN4_Y260_S262F_YF]

Screen (c-Abl kinase domain; [1]): 1.149
Sequence: RLLRGYNQSAF [HLA-C_Y137_D138N_YF]

Sequence: DLEKTYNTFRS [B4GALNT2_Y538_A533D_YF]
Screen (c-Src kinase domain; [3]): -0.01989

Screen (Fer kinase domain; [4]): -0.2857
Sequence: GHLFAYDWIRI [BEST1_Y227_S231R_YF]

Sequence: STLEVYRCHPP [IL21R_Y317_S318R]
Screen (c-Src kinase domain; [3]): -1.75

— article PMC10065799, “High-throughput profiling of sequence recognition by tyrosine kinases and SH2 domains using bacterial peptide display” (eLife, 2023)
